Experimental data: patent EP4467141A1, “PYRAZOLO-QUINOLINES AS SELECTIVE INHIBITORS OF GENOTOXIC STRESS-INDUCED IKK/NF- KB PATHWAYS FOR CANCER THERAPY” (Max-Delbrück-Centrum für Molekulare Medizin in der …, priority 2023, dated 2024)

Experiments:
[1] = test system: p65 nuclear translocation; assay: HCS screening: etoposide-induced p65 nuclear translocation in U2-OS cells; format: cell-based; settings: Homo sapiens, U2OS, read-out: etoposide-stimulated IC50 of p65 nuclear translocation
Description: (§1) Fig.1: Identification of inhibitors specific for DNA damage-induced NF-κB activity. (A) Flowchart representing the high-throughput chemical library screening. A screen/counter-screen strategy was used by stimulating NF-κB in U2-OS cells with etoposide (50 µM for 90 min) and hits were counter-screened with TNFα (10 ng/ml for 20 min). Cells were pre-treated with compounds (10 µM) for 1 hour before stimulation, fixed, and percent p65 nuclear translocation measured by fluorescence microscopy. IC50 values were used for final selection. (B) Comparison of mean p65 nuclear translocation following either etoposide or TNFa stimulation after treatment with each counter-screened hit compound. Values were normalized to etoposide or TNFα positive controls. Specific inhibitors (red) of DNA damage-induced NF-κB signaling were defined by setting cut-off criteria (black line). […] (E) Western blot analysis (top) and quantification (bottom) of NF-κB subunit p65 phosphorylation (S536) following 1-hour pre-treatment with DMSO, MW01 (10 µM), or MW05 (10 µM), in unstimulated, after 90 min irradiation (IR, 20 Gy), or after 20 min TNFα (10 ng/mL) conditions in U2- OS cells. […]
(§2) To identify inhibitors that selectively prevent DNA damage-induced NF-κB activation, we established a high-throughput screening platform quantifying p65 nuclear translocation, an essential step in NF-κB activation (Hayden and Ghosh, 2008). […]

[2] = test system: p65 nuclear translocation; assay: HCS counter-screen: TNFα-induced p65 nuclear translocation in U2-OS cells; format: cell-based
Description: as §1, §2

| Structure (SMILES) | IC50 [1] | TNFα stimulated IC50 of p65 nuclear translocation [2] |
| --- | --- | --- |
| COc1ccc2cc3c(N)nn(C(=O)c4cccc(N(C)C)c4)c3nc2c1 [MW05, (3-Amino-7-methoxypyrazolo[3,4-b]quinolin-1-yl)-[3-(dimethylamino)phenyl]methanone] | 690 nM | out of range |
| COc1ccc2c(c1OC)c(=O)n1c3ccc(O)cc3c3ccnc2c31 [MW01, 5-Hydroxy-10,11-dimethoxy-9H-benzo[c]indolo[3,2,1-ij][1,5]naphthyridin-9-one] | 460 nM | out of range |
